From patent US9265773B2, “Tetracyclic heterocycle compounds and methods of use thereof for the treatment of viral diseases” (priority 2011, dated 2016)

What was measured:
HCV replicon genotype 1b = test: microbe, parasite or virus in culture; assay type: cell-based; conditions: genotype 1b replicon cells, incubated 96 hours, NS3/4A ELISA readout
HCV replicon genotype 1a = test: microbe, parasite or virus in culture; assay type: cell-based; conditions: genotype 1a replicon cells, incubated 96 hours, NS3/4A ELISA readout

Structure (SMILES) | IC50 (HCV replicon genotype 1b) | IC50 (HCV replicon genotype 1a) | IC50 (HCV replicon genotype 1b; Hepatitis C virus, 96 h) | IC50 (HCV replicon genotype 1a; Hepatitis C virus, 96 h)
CNC(=O)c1c(-c2ccc(F)cc2)oc2cc(N(C)S(C)(=O)=O)c(-c3ccc4c(n3)-c3cc5c(F)cccc5n3C(C(N)=O)O4)cc12 (centres unmarked) [Compound 106, 11-fluoro-2-(2-(4-fluorophenyl)-3-(methylcarbamoyl)-6-(N-methylmethylsulfonamido)benzofuran-5-yl)-6H-pyrido[2′,3′:5,6][1,3]oxazino[3,4-a]indole-6-carboxamide] | 2.4 nM | 5.5 nM | – | –
CNC(=O)c1c(-c2ccc(F)cc2)oc2cc(N(C)S(C)(=O)=O)c(-c3ccc4c(n3)-c3cc5nc(OC)ccc5n3CO4)cc12 [Compound 45, 2-(4-fluorophenyl)-5-(10-methoxy-6H-pyrido[2,3-e]pyrido[2′,3′:4,5]pyrrolo[1,2-c][1,3]oxazin-2-yl)-N-methyl-6-(N-methylmethylsulfonamido)benzofuran-3-carboxamide] | – | – | 11 nM | 9.2 nM
COC(=O)C(=O)N(C)C(=O)c1c(-c2ccc(F)cc2)oc2cc(N(C)S(C)(=O)=O)c(-c3ccc4c(n3)-c3cc5c(F)cccc5n3CO4)cc12 [Compound 209, methyl 2-(5-(11-fluoro-6H-pyrido[2′,3′:5,6][1,3]oxazino[3,4-a]indol-2-yl)-2-(4-fluorophenyl)-N-methyl-6-(N-methylmethylsulfonamido)benzofuran-3-carboxamido)-2-oxoacetate] | – | – | 2.6 nM | 0.6 nM
CNC(=O)c1c(-c2ccc(F)cc2)oc2cc(N(C)S(C)(=O)=O)c(-c3ccc4c(n3)-c3cc5cc(C#N)ccc5n3CO4)cc12 [Compound 13] | – | – | 2.2 nM | 2 nM
CNC(=O)c1c(-c2ccc(F)cc2)oc2cc(N(C)S(C)(=O)=O)c(-c3ccc4c(c3)-c3cc5cccnc5n3CO4)cc12 [Compound 49] | – | – | 1.7 nM | 0.6 nM
CN(c1cc2oc(-c3ccc(F)cc3)c(-c3nnco3)c2cc1-c1ccc2c(n1)-c1cc3c(F)cccc3n1CO2)S(C)(=O)=O [Compound 159, N-(5-(11-fluoro-6H-pyrido[2′,3′:5,6][1,3]oxazino[3,4-a]indol-2-yl)-2-(4-fluorophenyl)-3-(1,3,4-oxadiazol-2-yl)benzofuran-6-yl)-N-methylmethanesulfonamide] | – | – | 22 nM | 11 nM
CNC(=O)c1c(-c2ccc(F)cc2)oc2cc(N(C)S(C)(=O)=O)c(-c3ccc4c(n3)-c3cc5c(F)cncc5n3CO4)cc12 [Compound 46, 5-(11-fluoro-6H-pyrido[2,3-e]pyrido[4′,3′:4,5]pyrrolo[1,2-c][1,3]oxazin-2-yl)-2-(4-fluorophenyl)-N-methyl-6-(N-methylmethylsulfonamido)benzofuran-3-carboxamide] | – | – | 2.1 nM | 1.5 nM
CNC(=O)c1c(-c2ccc(F)cc2)oc2cc(N(CCCF)S(C)(=O)=O)c(-c3ccc4c(n3)-c3cc5ccccc5n3CO4)cc12 [Compound 187] | – | – | 9.4 nM | 7.5 nM
CNC(=O)c1c(-c2ccc(F)cc2)oc2cc(N(C)S(C)(=O)=O)c(-c3ccc4c(n3)-c3cc5c(F)cccc5n3C(CCO)O4)cc12 (centres unmarked) [Compound 100, 5-(11-fluoro-6-(2-hydroxyethyl)-6H-pyrido[2′,3′:5,6][1,3]oxazino[3,4-a]indol-2-yl)-2-(4-fluorophenyl)-N-methyl-6-(N-methylmethylsulfonamido)benzofuran-3-carboxamide] | 3.6 nM | 3.3 nM | – | –
CNC(=O)c1c(-c2ccc(F)cc2)oc2cc(N(C)S(C)(=O)=O)c(-c3ccc4c(n3)-c3cc5cccnc5n3CO4)cc12 [Compound 48, 2-(4-fluorophenyl)-N-methyl-6-(N-methylmethylsulfonamido)-5-(6H-pyrido[2,3-e]pyrido[3′,2′:4,5]pyrrolo[1,2-c][1,3]oxazin-2-yl)benzofuran-3-carboxamide] | – | – | 2.6 nM | 2.2 nM
CNC(=O)c1c(-c2ccc(F)cc2)oc2cc(CN)c(-c3ccc4c(n3)-c3cc5c(F)cccc5n3CO4)cc12 [Compound 181] | – | – | 14 nM | 13 nM
CNC(=O)c1c(-c2ccc(F)cc2)oc2cc(N3CCN(C)C3=O)c(-c3ccc4c(n3)-c3cc5c(F)cccc5n3CO4)cc12 [Compound 178, 5-(11-fluoro-6H-pyrido[2′,3′:5,6][1,3]oxazino[3,4-a]indol-2-yl)-2-(4-fluorophenyl)-N-methyl-6-(3-methyl-2-oxoimidazolidin-1-yl)benzofuran-3-carboxamide] | – | – | 28 nM | 133 nM
CNC(=O)c1c(-c2ccc(F)cc2)oc2cc(N(C)S(C)(=O)=O)c(-c3ccc4c(c3)-c3cc5ccccc5n3CC(F)(F)CO4)cc12 [Compound 77, 5-(7,7-difluoro-7,8-dihydro-6H-benzo[2,3][1,5]oxazocino[5,4-a]indol-2-yl)-2-(4-fluorophenyl)-N-methyl-6-(N-methylmethylsulfonamido)benzofuran-3-carboxamide] | – | – | 11 nM | 10 nM
CNC(=O)c1c(-c2ccc(F)cc2)oc2cc(N(C)S(C)(=O)=O)c(-c3ccc4c(c3)-c3cc5ccccc5n3CC(O)(C(F)(F)F)CO4)cc12 (centres unmarked) [Compound 79, 2-(4-fluorophenyl)-5-(7-hydroxy-7-(trifluoromethyl)-7,8-dihydro-6H-benzo[2,3][1,5]oxazocino[5,4-a]indol-2-yl)-N-methyl-6-(N-methylmethylsulfonamido)benzofuran-3-carboxamide] | – | – | 11 nM | 10 nM
CNC(=O)c1c(-c2ccc(F)cc2)oc2cc(N(C)S(C)(=O)=O)c(-c3cnc4c(c3)-c3nc5ccccn5c3CO4)cc12 [Compound 144, 2-(4-fluorophenyl)-N-methyl-6-[methyl(methylsulfonyl)amino]-5-(6H pyrido[1″,2″:1′,2′]imidazo[4′,5′:4,5]pyrano[2,3-b]pyridin-2-yl)-1-benzofuran-3-carboxamide] | – | – | 1.9 nM | 2.9 nM
CNC(=O)c1c(-c2ccc(F)cc2)oc2cc(N(CCF)S(C)(=O)=O)c(-c3ncc4c(n3)-c3cc5ccccc5n3CO4)cc12 [Compound 196] | – | – | 3.6 nM | 1.8 nM
CNC(=O)c1c(-c2ccc(F)cc2)oc2cc(N(C)S(C)(=O)=O)c(-c3ccc4c(n3)-c3cc5c(F)cccc5n3[C@H](COC(=O)[C@@H](N)C(C)C)O4)cc12 [Compound 102, (S)—((S)-11-fluoro-2-(2-(4-fluorophenyl)-3-(methylcarbamoyl)-6-(N-methylmethylsulfonamido)benzofuran-5-yl)-6H-pyrido[2′,3′:5,6][1,3]oxazino[3,4-a]indol-6-yl)methyl 2-amino-3-methylbutanoate] | – | – | 4.3 nM | 3.9 nM
CNC(=O)c1c(-c2ccc(F)cc2)oc2cc(N(C)S(C)(=O)=O)c(-c3ccc4c(c3)-c3nc5ccc(F)cn5c3CO4)cc12 [Compound 143] | – | – | 8 nM | 15 nM
CNC(=O)c1c(-c2ccc(F)cc2)oc2cc(N(C)S(C)(=O)=O)c(-c3ccc4c(c3)-c3[nH]c5ccccc5c3C(C)(C)O4)cc12 [Compound 61, 5-(6,6-dimethyl-6,11-dihydrochromeno[4,3-b]indol-2-yl)-2-(4-fluorophenyl)-N-methyl-6-(N-methylmethylsulfonamido)benzofuran-3-carboxamide] | – | – | 11 nM | 6.5 nM
CNC(=O)c1c(-c2ccc(F)cc2)oc2cc(N(C)S(C)(=O)=O)c(-c3cnc4c(c3)-c3cc5c(F)cccc5n3CO4)cc12 [Compound 34] | – | – | 3.3 nM | 1.4 nM
CNC(=O)c1c(-c2ccc(F)cc2)oc2cc(N(C)S(C)(=O)=O)c(-c3ccc4c(n3)-c3c(Cl)c5ccccc5n3CO4)cc12 [Compound 55, 5-(12-chloro-6H-pyrido[2′,3′:5,6][1,3]oxazino[3,4-a]indol-2-yl)-2-(4-fluorophenyl)-N-methyl-6-(N-methylmethylsulfonamido)benzofuran-3-carboxamide] | – | – | 49 nM | 57 nM
CNC(=O)c1c(-c2ccc(F)cc2)oc2cc(N(C)S(C)(=O)=O)c(-c3ccc4c(n3)-c3cc5c(F)cccc5n3C(CF)O4)cc12 (centres unmarked) [Compound 98, 5-(11-fluoro-6-(fluoromethyl)-6H-pyrido[2′,3′:5,6][1,3]oxazino[3,4-a]indol-2-yl)-2-(4-fluorophenyl)-N-methyl-6-(N-methylmethylsulfonamido)benzofuran-3-carboxamide] | – | – | 6.3 nM | 3.9 nM
CNC(=O)c1c(-c2ccc(F)cc2)oc2cc(N(C)S(C)(=O)=O)c(-c3ccc4c(n3)-c3cc5c(F)cccc5n3C(C(OC)OC)O4)cc12 (centres unmarked) [Compound 93] | – | – | 6 nM | 4.4 nM
CNC(=O)c1c(-c2ccc(F)cc2)oc2cc(N(C)S(C)(=O)=O)c(-c3ccc4c(n3)-c3c(C#N)c5ccccc5n3CO4)cc12 [Compound 60, 5-(12-cyano-6H-pyrido[2′,3′:5,6][1,3]oxazino[3,4-a]indol-2-yl)-2-(4-fluorophenyl)-N-methyl-6-(N-methylmethylsulfonamido)benzofuran-3-carboxamide] | – | – | 31 nM | 69 nM
CNC(=O)c1c(-c2ccc(F)cc2)oc2cc(N(C)S(C)(=O)=O)c(-c3ccc4c(c3)-c3nc5cccc(F)c5n3CO4)cc12 [Compound 134] | – | – | 2.9 nM | 4 nM
CNC(=O)c1c(-c2ccc(F)cc2)oc2cc(-c3ccnn3C)c(-c3ccc4c(n3)-c3cc5c(F)cccc5n3CO4)cc12 [Compound 165, 5-(11-fluoro-6H-pyrido[2′,3′:5,6][1,3]oxazino[3,4-a]indol-2-yl)-2-(4-fluorophenyl)-N-methyl-6-(1-methyl-1H-pyrazol-5-yl)benzofuran-3-carboxamide] | – | – | 9.7 nM | 27 nM
CN(c1cc2oc(-c3ccc(F)cc3)c(-c3ncn[nH]3)c2cc1-c1ccc2c(n1)-c1cc3c(F)cccc3n1CO2)S(C)(=O)=O [Compound 160, N-(5-(11-fluoro-6H-pyrido[2′,3′:5,6][1,3]oxazino[3,4-a]indol-2-yl)-2-(4-fluorophenyl)-3-(1H-1,2,4-triazol-5-yl)benzofuran-6-yl)-N-methylmethanesulfonamide] | – | – | 16 nM | 19 nM
CNC(=O)c1c(-c2ccc(F)cc2)oc2cc(N(C)S(C)(=O)=O)c(-c3ccc4c(n3)-c3cc5c(F)cccc5n3C(C(=O)NC)O4)cc12 (centres unmarked) [Compound 109] | 2.1 nM | – | – | 2 nM
